Experimental data reported in PMC7238188, “Recombinant Peptide Production Platform Coupled with Site-Specific Albumin Conjugation Enables a Convenient Production of Long-Acting Therapeutic Peptide” (Pharmaceutics, 2020).

What was measured:
C57BL/6J mice = experiment: In vivo intraperitoneal glucose tolerance test (IPGTT); conditions: C57BL/6J male mice, 100 nmol/kg subcutaneous 1 h before glucose 1.5 g/kg i.p., 0-120 min, n = 6
Description: We performed in vivo intraperitoneal glucose tolerance tests (IPGTTs) on seven-week-old male C57BL/6J mice, which we purchased from DBL. The mice were randomly divided into five groups (n = 6). The IPGTTs were performed after glucose (1.5 g/kg dose) had been intraperitoneally administered to C57BL/6J male mice that had been fasted for 3 h. We obtained blood samples from the tail of each mouse at the predetermined time using an Accu-Check Guide (Roche Diabetes Care, Indianapolis, IN, USA).

[1] = K34R mutant; cited from earlier work
[2] = molecular target: human GLP-1 receptor (GLP-1R) overexpressed on HEK-293 cells (human) (UniProt P43220)
Sequence of human GLP-1 receptor (GLP-1R) overexpressed on HEK-293 cells (human) (P43220 24-463): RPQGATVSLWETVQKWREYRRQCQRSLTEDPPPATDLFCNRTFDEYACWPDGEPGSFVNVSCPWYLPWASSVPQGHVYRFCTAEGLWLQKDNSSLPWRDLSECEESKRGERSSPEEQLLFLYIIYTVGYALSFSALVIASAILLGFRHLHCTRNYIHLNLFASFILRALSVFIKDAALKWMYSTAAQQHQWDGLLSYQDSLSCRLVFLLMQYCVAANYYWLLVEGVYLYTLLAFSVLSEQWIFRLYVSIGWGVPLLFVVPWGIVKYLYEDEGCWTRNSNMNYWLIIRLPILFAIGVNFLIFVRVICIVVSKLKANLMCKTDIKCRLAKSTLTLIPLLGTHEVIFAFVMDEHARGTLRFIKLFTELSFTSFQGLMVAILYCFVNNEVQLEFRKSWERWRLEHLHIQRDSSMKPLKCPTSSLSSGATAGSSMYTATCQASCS

EC50 of cAMP production in HEK-293 cells overexpressing GLP-1R [2]	Molecule	blood glucose profile / blood glucose levels in IPGTT (C57BL/6J mice)	biological activity compared with wild-type GLP-1 [1]
–	CC[C@H](C)[C@H](NC(=O)[C@H](Cc1ccccc1)NC(=O)[C@H](CCC(=O)O)NC(=O)[C@H](CCCCN)NC(=O)[C@H](C)NC(=O)[C@H](C)NC(=O)[C@H](CCC(N)=O)NC(=O)CNC(=O)[C@H](CCC(=O)O)NC(=O)[C@H](CC(C)C)NC(=O)[C@H](Cc1ccc(O)cc1)NC(=O)[C@H](CO)NC(=O)[C@H](CO)NC(=O)[C@@H](NC(=O)[C@H](CC(=O)O)NC(=O)[C@H](CO)NC(=O)[C@@H](NC(=O)[C@H](Cc1ccccc1)NC(=O)[C@@H](NC(=O)CNC(=O)[C@H](CCC(=O)O)NC(=O)[C@H](C)NC(=O)[C@@H](N)Cc1c[nH]cn1)[C@@H](C)O)[C@@H](C)O)C(C)C)C(=O)N[C@@H](C)C(=O)N[C@@H](Cc1c[nH]c2ccccc12)C(=O)N[C@@H](CC(C)C)C(=O)N[C@H](C(=O)N[C@@H](CCCNC(=N)N)C(=O)NCC(=O)N[C@@H](CCCNC(=N)N)C(=O)NCC(=O)O)C(C)C [GLP1_C]	very similar to that of the negative control group	comparable biological activity to that of wild-type GLP-1
700 nM	GLP1_16HSA (GLP-1 variant conjugated to human serum albumin at position 16) (from UniProt P02768 25-609)	–	–
